In ChEMBL document CHEMBL1201862, “PubChem BioAssay data set” (2004):
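Method: 48-hour compound exposure of cells in 96-well plates, five concentrations, linear interpolation of endpoints. At the GI50, growth is halved.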 Activity calls are given as the source filed them. Cut-off read from the data, not from the text of the source: active = GI50 up to about 1.1 µM and inactive = higher.

Tests used:
Test in all cases: NCI-60 cell line screen, 48 h
OVCAR-3 = test system: OVCAR-3
HOP-62 = test system: HOP-62
MOLT-4 = test system: MOLT-4
KM-20L2 = test system: KM-20L2
CCRF-CEM = test system: CCRF-CEM
SK-MEL-5 = test system: SK-MEL-5
SW-620 = test system: SW-620
KM12 = test system: KM12
ACHN = test system: ACHN
SN12C = test system: SN12C
NCI-H522 = test system: NCI-H522
SNB-78 = test system: SNB-78
EKVX = test system: EKVX
K562 = test system: K562
CAKI-1 = test system: CAKI-1
U-251 = test system: U-251
RPMI-8226 = test system: RPMI-8226

Compound | GI50 (OVCAR-3) | GI50 (HOP-62) | GI50 (MOLT-4) | GI50 (KM-20L2) | GI50 (CCRF-CEM) | GI50 (SK-MEL-5) | GI50 (SW-620) | GI50 (KM12) | GI50 (ACHN) | GI50 (SN12C) | GI50 (NCI-H522) | GI50 (SNB-78) | GI50 (EKVX) | GI50 (K562) | GI50 (CAKI-1) | GI50 (U-251) | GI50 (RPMI-8226)
NCCSc1cc(O)c2c(c1N)C(=O)c1ccccc1C2=O | 43 µM (inactive) | > 100 µM (inactive) | 20.9 µM (inactive) | 5.51 µM (inactive) | 16.8 µM (inactive) | 12.9 µM (inactive) | 33.1 µM (inactive) | 51.2 µM (inactive) | 43.8 µM (inactive) | 47.1 µM (inactive) | 19.6 µM (inactive) | 32.1 µM (inactive) | > 100 µM (inactive) | 22.2 µM (inactive) | > 100 µM (inactive) | 58.7 µM (inactive) | –
BrC12C3C4C5C(C(C43)C13OCCO3)C52 (centres undefined) | > 100 µM (inactive) | > 100 µM (inactive) | > 100 µM (inactive) | > 100 µM (inactive) | > 100 µM (inactive) | > 100 µM (inactive) | > 100 µM (inactive) | > 100 µM (inactive) | > 100 µM (inactive) | – | > 100 µM (inactive) | > 100 µM (inactive) | > 100 µM (inactive) | > 100 µM (inactive) | – | > 100 µM (inactive) | > 100 µM (inactive)
O=C1NC(=S)NC(=O)C1=Cc1ccc2ccccc2n1 | > 100 µM (inactive) | > 100 µM (inactive) | > 100 µM (inactive) | > 100 µM (inactive) | > 100 µM (inactive) | > 100 µM (inactive) | > 100 µM (inactive) | > 100 µM (inactive) | > 100 µM (inactive) | > 100 µM (inactive) | > 100 µM (inactive) | > 100 µM (inactive) | > 100 µM (inactive) | > 100 µM (inactive) | > 100 µM (inactive) | > 100 µM (inactive) | > 100 µM (inactive)
COc1ccc(/C=C/C(=O)c2sc(-c3cccnc3)nc2C)cc1 | 24.2 µM (inactive) | 63.7 µM (inactive) | 16.7 µM (inactive) | 56.4 µM (inactive) | 28.6 µM (inactive) | 30.3 µM (inactive) | 32.8 µM (inactive) | 15.3 µM (inactive) | – | 64.6 µM (inactive) | 20.5 µM (inactive) | > 100 µM (inactive) | > 100 µM (inactive) | 21.8 µM (inactive) | 49.9 µM (inactive) | 58.3 µM (inactive) | 2.9 µM (inactive)
O=c1[nH]c(S)nc2c1sc(=S)n2-c1ccccc1 | > 100 µM (inactive) | > 100 µM (inactive) | > 100 µM (inactive) | > 100 µM (inactive) | > 100 µM (inactive) | > 100 µM (inactive) | > 100 µM (inactive) | > 100 µM (inactive) | > 100 µM (inactive) | > 100 µM (inactive) | > 100 µM (inactive) | > 100 µM (inactive) | > 100 µM (inactive) | > 100 µM (inactive) | > 100 µM (inactive) | > 100 µM (inactive) | > 100 µM (inactive)
COC(=O)/C(C#N)=C1\CCC(OC)N1C (centres undefined) | > 100 µM (inactive) | > 100 µM (inactive) | > 100 µM (inactive) | > 100 µM (inactive) | > 100 µM (inactive) | > 100 µM (inactive) | > 100 µM (inactive) | > 100 µM (inactive) | > 100 µM (inactive) | > 100 µM (inactive) | > 100 µM (inactive) | > 100 µM (inactive) | > 100 µM (inactive) | > 100 µM (inactive) | > 100 µM (inactive) | > 100 µM (inactive) | > 100 µM (inactive)
Cc1cc2nc(O)c(CCC(=O)O)nc2cc1C | > 100 µM (inactive) | > 100 µM (inactive) | > 100 µM (inactive) | > 100 µM (inactive) | > 100 µM (inactive) | > 100 µM (inactive) | – | > 100 µM (inactive) | > 100 µM (inactive) | > 100 µM (inactive) | 83.8 µM (inactive) | > 100 µM (inactive) | > 100 µM (inactive) | > 100 µM (inactive) | > 100 µM (inactive) | > 100 µM (inactive) | > 100 µM (inactive)
CC(/C=C/NNC1=NN=C(c2ccccc2)C(c2ccccc2)N1)Sc1ccccc1N (centres undefined) | 10.3 µM (inactive) | 17.9 µM (inactive) | 3.43 µM (inactive) | 10.6 µM (inactive) | 2.46 µM (inactive) | 9.66 µM (inactive) | 2.75 µM (inactive) | 8.85 µM (inactive) | 10.4 µM (inactive) | 5.79 µM (inactive) | 3.56 µM (inactive) | 7.31 µM (inactive) | 18.5 µM (inactive) | 6.24 µM (inactive) | 14.7 µM (inactive) | 2.34 µM (inactive) | 3.64 µM (inactive)
CC(C)c1ccccc1NC(=O)CCC(=O)NN | > 100 µM (inactive) | – | > 100 µM (inactive) | > 100 µM (inactive) | > 100 µM (inactive) | – | > 100 µM (inactive) | > 100 µM (inactive) | > 100 µM (inactive) | > 100 µM (inactive) | > 100 µM (inactive) | > 100 µM (inactive) | > 100 µM (inactive) | > 100 µM (inactive) | > 100 µM (inactive) | > 100 µM (inactive) | > 100 µM (inactive)
COc1ccc(-c2cc(-c3cc(Cl)cc(Br)c3O)nc(O)n2)cc1 | 17.5 µM (inactive) | 14.1 µM (inactive) | 13.2 µM (inactive) | 19.1 µM (inactive) | 19.8 µM (inactive) | – | 20.7 µM (inactive) | 18.9 µM (inactive) | 14.2 µM (inactive) | 15.5 µM (inactive) | 13.4 µM (inactive) | 18.7 µM (inactive) | 5.87 µM (inactive) | 14.1 µM (inactive) | 16.4 µM (inactive) | 17 µM (inactive) | 18.8 µM (inactive)
Cc1ccc2nc(NC(=O)C(=O)C(C#N)c3nc4ccccc4s3)sc2c1 (centres undefined) | 23.4 µM (inactive) | 14.5 µM (inactive) | 20.4 µM (inactive) | 28 µM (inactive) | – | 19.4 µM (inactive) | 55.1 µM (inactive) | 47.2 µM (inactive) | 42.3 µM (inactive) | 54 µM (inactive) | 32.1 µM (inactive) | 36.3 µM (inactive) | 39 µM (inactive) | 29.2 µM (inactive) | 42.2 µM (inactive) | 33.7 µM (inactive) | 28.3 µM (inactive)
CN(C)CC1CC/C(=C\c2ccc(Cl)cc2)C1=O (centres undefined) | 7.35 µM (inactive) | 22.4 µM (inactive) | 0.561 µM (active) | 12.1 µM (inactive) | 0.611 µM (active) | 11.9 µM (inactive) | 2.61 µM (inactive) | 3.46 µM (inactive) | 12.6 µM (inactive) | 7.67 µM (inactive) | 3.48 µM (inactive) | 16.3 µM (inactive) | 12.7 µM (inactive) | 0.908 µM (active) | 3.33 µM (inactive) | 7 µM (inactive) | 0.441 µM (active)
CSc1sc(=S)sc1C(=O)N(C)c1ccccc1 | 91.8 µM (inactive) | > 100 µM (inactive) | 84.5 µM (inactive) | > 100 µM (inactive) | 56 µM (inactive) | > 100 µM (inactive) | > 100 µM (inactive) | 91.8 µM (inactive) | > 100 µM (inactive) | > 100 µM (inactive) | 48.8 µM (inactive) | > 100 µM (inactive) | > 100 µM (inactive) | > 100 µM (inactive) | – | > 100 µM (inactive) | 52.7 µM (inactive)
CC1(C)Oc2ccccc2N2O[C@@H]3C(=O)N(c4ccccc4)C(=O)[C@@H]3C21c1ccccc1 (some centres undefined) | 21.2 µM (inactive) | 16.8 µM (inactive) | 27.1 µM (inactive) | 51.4 µM (inactive) | 27.7 µM (inactive) | 23 µM (inactive) | 34.4 µM (inactive) | 30.6 µM (inactive) | – | – | 28.7 µM (inactive) | 35.5 µM (inactive) | 56.1 µM (inactive) | 37.4 µM (inactive) | 24.9 µM (inactive) | 25 µM (inactive) | 37.8 µM (inactive)
CCN(CC)C(=O)CCn1ccc(=O)[nH]c1=O | > 100 µM (inactive) | > 100 µM (inactive) | > 100 µM (inactive) | > 100 µM (inactive) | > 100 µM (inactive) | > 100 µM (inactive) | > 100 µM (inactive) | > 100 µM (inactive) | > 100 µM (inactive) | > 100 µM (inactive) | > 100 µM (inactive) | > 100 µM (inactive) | > 100 µM (inactive) | > 100 µM (inactive) | – | > 100 µM (inactive) | > 100 µM (inactive)
CC(=O)O[C@@H]1CC(C)C2CC2C2=C(C(O)OC2O)[C@@H]1C(C)CCC=C(C)C (some centres undefined) | – | 26.9 µM (inactive) | 24.6 µM (inactive) | 18.7 µM (inactive) | 24.8 µM (inactive) | 25.3 µM (inactive) | 23 µM (inactive) | – | 31.7 µM (inactive) | 18.4 µM (inactive) | 15.3 µM (inactive) | 30.5 µM (inactive) | 40 µM (inactive) | 23.9 µM (inactive) | 26.4 µM (inactive) | 19.4 µM (inactive) | 25.2 µM (inactive)
COC(=O)C1=Cc2cc(OC)c(OC)c(OC)c2[C@H](c2cc(OC)c(OC)c(OC)c2)C1C(=O)OC (some centres undefined) | > 100 µM (inactive) | > 100 µM (inactive) | > 100 µM (inactive) | > 100 µM (inactive) | > 100 µM (inactive) | > 100 µM (inactive) | > 100 µM (inactive) | > 100 µM (inactive) | > 100 µM (inactive) | > 100 µM (inactive) | > 100 µM (inactive) | > 100 µM (inactive) | > 100 µM (inactive) | > 100 µM (inactive) | > 100 µM (inactive) | > 100 µM (inactive) | > 100 µM (inactive)
